Assay results published in patent publication US9833405B2, “Biodegradable microdepot delivery system for topical delivery” (Nano and Advanced Materials Institute Limited, priority 2014, dated 2017).
Where a SMILES comes first, the peptide text is derived from it. The star is where a group is joined. Palmitoyl = CCCCCCCCCCCCCCCC(=O)*

Test system: HaCaT cells
Test: Cell viability assay (MTT) for in vitro skin irritation of active ingredients
Assay type: cell-based, human
Conditions: for Cell viability(%): MTT
Protocol: HaCaT cells, a human keratinocyte cell line, are used as the in vitro model to test any irritation effect of the active ingredients used in the polymeric solution to form the microdepot delivery system of the present invention. The following is the procedures of an MTT assay for testing any skin irritation effect of the active ingredients used in the polymeric solution of the present invention: • a) 12 mM MTT stock solution is prepared by adding 1 mL of sterile PBS into one 5 mg vial of MTT (Component A) and mixed by sonication until the vial of MTT is dissolved in the PBS; • b) HaCaT cells at 5,000 cells per well are seed into a 96-well plate and incubated at 37° C. in 5% CO2 for 24 to 48 hours until the cells become adherent; • c) Culture medium in each well is removed and replaced with 100 μL of test compound (e.g., active ingredient used in the polymeric solution of the present invention); • d) 10 μL of the MTT stock solution prepared in step (a) is added to each well; a negative control containing 100 μL of culture medium and 10 μL of the MTT stock solution is also included for comparison; • e) Both test samples and negative control prepared in step (d) are incubated at 37° C. for 4 hours; • f) 25 μL of the solution is removed from each well after incubation in step (e) followed by adding 50 μL of DMSO to each well and mix thoroughly by pipette; • g) The mixture in step (f) is incubated at 37° C. for 10 minutes; • h) The mixture in each well after the incubation in step (g) is mixed again before measuring absorbance at 540 nm; • i) The mixture is subject to a spectrophotometer to measure the absorbance at 540 nm.
The cell viability of HaCaT cells with the treatment of the test compound is calculated based on the following formula:
[formula] where ^OD(1) is the absorbance of culture medium only; ^OD(2) is the absorbance of the culture medium with the cells; ^OD(3) is the absorbance of the culture medium with the test compound; and ^OD(4) is the absorbance of the culture medium with the cells and test compound.

Row | Molecule | Cell viability(%) (test compound 2%) | Cell viability(%) (test compound 4%) | Cell viability(%) (test compound 6%) | Cell viability(%) (test compound 8%) | Cell viability(%) (test compound 10%) | cytotoxicity (viability higher than or equal to control) (at 2%) | Cell viability(%) (test compound 0.2%) | Cell viability(%) (test compound 0.5%) | Cell viability(%) (test compound 1%) | Cell viability(%) (test compound 5%) | cytotoxicity (viability higher than or equal to control) (concentrations ranging from 0.2% to 5%) | Cell viability(%) (test compound 3%) | cytotoxicity (viability higher than or equal to control) (concentrations ranging from 3% to 10%)
1 | NC(=O)c1cccnc1 [Niacinamide, reference compound] | 115 | 91.34 | 77.44 | 84.08 | 80.43 | non-cytotoxic | – | – | – | – | – | – | –
2 | GHK-Cu | 132.7 | – | – | – | – | – | 135.1 | 139.6 | 144.6 | 136.1 | non-cytotoxic | – | –
3 | CCCCCCCCCCCCCCCC(=O)N[C@@H](CCCCN)C(=O)N[C@H](C(=O)N[C@H](C(=O)N[C@@H](CCCCN)C(=O)N[C@@H](CO)C(=O)O)[C@@H](C)O)[C@@H](C)O [Pal-KTTKS] (Palmitoyl-KTTKS-OH) | – | 135.1 | – | 141.9 | 127.8 | – | – | – | – | 122.6 | – | 119 | non-cytotoxic
